# Article PMC6175903, “Tuneable poration: host defense peptides as sequence probes for antimicrobial mechanisms” (Scientific Reports, 2018)
# Read-outs that look alike come from different tables or passages of the source. Marks after values point to notes of the source that are not given here. Bridge positions count the residues as written; N and C are the ends. Square brackets hold non-standard residues; d marks the D form. Ends that are not written are not given here. Peptide text beside a SMILES is read from it. * marks the point of attachment. X1 = CC[C@H](C)CCCCC(=O)*; Dab = NCC[C@H](N)C(=O)O
# Columns and labels:
# E. coli (K12) = assay: microbe, parasite or virus in culture; type: cell-based; settings: read-out: Minimum inhibitory concentrations
# Protocol: (§1) Minimum inhibitory concentrations (MICs) were determined by broth microdilution on P. aeruginosa (ATCC27853), E. coli (K12), S. aureus (ATCC6538), M. luteus (NCIMB13267), B. subtilis (ATCC6633), S. typhimurium (DA6192) and E. faecalis (OG1X) according to the Clinical and Laboratory Standards Institute and as recommended for antimicrobial peptide testing. Typically, 100 μL of 0.5–1 × 10^6 CFU per ml of each bacterium in Mueller Hinton media broth (Oxoid) were incubated in 96-well polystyrene microtiter plates with 100 μL of serial twofold dilutions of the peptides (from 100 to 0 μM) at 37 °C on a 3D orbital shaker. The absorbance was measured after peptide addition at 600 nm using a Victor 2 plate reader (Perkin-Elmer). MICs were defined as the lowest peptide concentration after 24 h at 37 °C. The mutant strains of S. typhimurium, named using the original nomenclature, were kindly provided by Dan Andersson[55].
# [1] = tested on: P. aeruginosa (ATCC27853); assay: microbe, parasite or virus in culture; type: cell-based; settings: read-out: Minimum inhibitory concentrations
# Protocol: as §1
# human erythrocytes = settings: for hemolysis: 250 µM; for LC50, median (50%) lethal concentration: human erythrocytes
# Protocol: Hemolysis was determined by incubating a 10% (vol/vol) suspension of human erythrocytes with peptides. Erythrocytes were rinsed four times in 10 mM phosphate buffer saline (PBS), pH 7.2, by repeated centrifugation and re-suspension (3 min at 3000 × g). Erythrocytes were incubated at room temperature for 1 h in either deionized water (fully haemolysed control), PBS, or with peptide in PBS. After centrifugation at 10,000 × g for 5 min, the supernatant was separated from the pellet, and the absorbance was measured at 550 nm. Absorbance of the suspension treated with deionized water defined complete hemolysis. […] All tests were done in triplicate.
# S. aureus (ATCC6538) = assay: microbe, parasite or virus in culture; type: cell-based; settings: read-out: Minimum inhibitory concentrations
# Protocol: as §1, with “Typically, 100 μL of 0.5–1 × 10^6 CFU per ml of each bacterium in Mueller Hinton media broth (Oxoid) were incubated in 96-well polystyrene microtiter plates with 100 μL of serial twofold dilutions of the peptides (from 100 to 0 μM) at 37 °C on a 3D orbital shaker.” left out
# B. subtilis (ATCC6633) = assay: microbe, parasite or virus in culture; type: cell-based; settings: read-out: Minimum inhibitory concentrations
# Protocol: as §1
# S. typhimurium (DA6192) = assay: microbe, parasite or virus in culture; type: cell-based; settings: 24 h at 37 °C, triplicate, read-out: Minimum inhibitory concentrations
# Protocol: as §1, with “Typically, 100 μL of 0.5–1 × 10^6 CFU per ml of each bacterium in Mueller Hinton media broth (Oxoid) were incubated in 96-well polystyrene microtiter plates with 100 μL of serial twofold dilutions of the peptides (from 100 to 0 μM) at 37 °C on a 3D orbital shaker.” left out
# M. luteus (NCIMB13267) = assay: microbe, parasite or virus in culture; type: cell-based; settings: read-out: Minimum inhibitory concentrations
# Protocol: as §1, with “Typically, 100 μL of 0.5–1 × 10^6 CFU per ml of each bacterium in Mueller Hinton media broth (Oxoid) were incubated in 96-well polystyrene microtiter plates with 100 μL of serial twofold dilutions of the peptides (from 100 to 0 μM) at 37 °C on a 3D orbital shaker.” left out
# [2] = for comparison, naturally occurring HDPs; cited from earlier work
# Protocol: The improved amphipathicity of CecM compared to CecB was evaluated by calculating the mean hydrophobic moment using HeliQuest[70]. The mean hydrophobic moment is a two-dimensional vector sum which provides a direct, quantitative measure of amphipathicity in regular repeats. The mean hydrophobic moment increases from CecB (0.296) to CecM (0.350). For comparison, values for PGLa and magainin, two naturally occurring HDPs, are 0.260 and 0.286, respectively. Percentage of secondary structure elements was calculated using STRIDE[73]. Oligomerisation simulations were performed over 500 ns fo ...
# [3] = tested on: S. typhimurium DA22427 waaY (del bp17FS); assay: microbe, parasite or virus in culture; type: cell-based; settings: for Minimum inhibitory concentrations: S. typhimurium mutant DA22427 waaY (del bp17FS), broth microdilution, 24 h at 37 °C, triplicate; for MIC: Salmonella enterica, TYPHIMURIUM, 24 h, read-out: Minimum inhibitory concentrations
# Protocol: (§2) To explore these variations, the peptides were tested against cross-resistant strains of S. typhimurium, which were experimentally derived from the wild type bacterium subjected to increasing concentrations of pore-forming human HDPs[55]. Three genetic mutations were selected as candidate contributors to resistance and were reconstituted in the wild type genetic background, giving rise to the strains given in Table 2. One strain has the waaY gene mutated. This gene encodes for WaaY kinase that adds a phosphate group to the heptose II residue in the LPS inner core. The deactivation of the gene leads to decreased susceptibility to HDPs[56], as a result of reducing peptide binding to cell surfaces to the levels below those necessary to lyse the bacterium. Two other strains were mutated in pmrB and phoP genes, both of which are involved in masking phosphate groups (diminished charge) and influencing membrane fluidity (restricted motion)[58]. Finally, the fourth strain combined all three mutations (Table 2).
# as §1
# [4] = tested on: S. typhimurium DA23899 waaY, pmrB, phoP; assay: microbe, parasite or virus in culture; type: cell-based; settings: for Minimum inhibitory concentrations: S. typhimurium mutant DA23899 waaY, pmrB, phoP, broth microdilution, 24 h at 37 °C, triplicate; for MIC: Salmonella enterica, TYPHIMURIUM, 24 h, read-out: Minimum inhibitory concentrations
# Protocol: as §2, §1
# [5] = tested on: S. typhimurium DA23307 phoP (D23N); type: cell-based; settings: S. typhimurium mutant DA23307 phoP (D23N); broth microdilution, 24 h at 37 °C, triplicate
# Protocol: as §2, §1
# [6] = tested on: S. typhimurium DA23175 pmrB (R13H); type: cell-based; settings: S. typhimurium mutant DA23175 pmrB (R13H); broth microdilution, 24 h at 37 °C, triplicate
# Protocol: as §2, §1
# [7] = E. coli, Ala-d3 ChoM mutants (Table S6), broth microdilution
# [8] = P. aeruginosa, Ala-d3 ChoM mutants (Table S6), broth microdilution
# [9] = S. aureus, Ala-d3 ChoM mutants (Table S6), broth microdilution
# [10] = 10% (vol/vol) suspension in PBS pH 7.2, 1 h at room temperature, absorbance 550 nm, triplicate (Table 1)
# [11] = S. typhimurium (Table 1), broth microdilution (CLSI), Mueller Hinton broth, absorbance 600 nm
# [12] = M. luteus, broth microdilution (CLSI), Mueller Hinton broth, 24 h at 37 °C, absorbance 600 nm, triplicate
# [13] = S. typhimurium DA6192 (wild type, Table 2), broth microdilution
Molecule,"LC50, median (50%) lethal concentration (human erythrocytes; [10])",MIC (S. typhimurium (DA6192); [11]),MIC (M. luteus (NCIMB13267); [12]),Minimum inhibitory concentrations [3],Minimum inhibitory concentrations [4],Minimum inhibitory concentrations [5],Minimum inhibitory concentrations [6],MIC (S. typhimurium (DA6192); [13]),also measured
KWKAFKKIEKMIRNIRNKIVK [V4A],–,–,–,–,–,–,–,–,"MIC (E. coli (K12); [7]): > 3 µM; MIC [1, 8]: > 3 µM; hemolysis (human erythrocytes): 1-2%; LC50, median (50%) lethal concentration (human erythrocytes; Ala-d3 ChoM mutants (Table S6)): > 250 µM; MIC (S. aureus (ATCC6538); [9]): > 12 µM"
CCCCCCCCCC(=O)N[C@@H](Cc1c[nH]c2ccccc12)C(=O)N[C@H](CC(N)=O)C(=O)N[C@@H](CC(=O)O)C(=O)N[C@@H]1C(=O)NCC(=O)N[C@@H](CCCN)C(=O)N[C@@H](CC(=O)O)C(=O)N[C@H](C)C(=O)N[C@@H](CC(=O)O)C(=O)NCC(=O)N[C@H](CO)C(=O)N[C@@H]([C@H](C)CC(=O)O)C(=O)N[C@@H](CC(=O)c2ccccc2N)C(=O)O[C@@H]1C [daptomycin],>250^c µM,>60 µM,<15 µM,–,–,–,–,–,"MIC (B. subtilis (ATCC6633); B. subtilis, broth microdilution (CLSI), Mueller Hinton broth, serial twofold dilutions 100 to 0 μM, 24 h at 37 °C, absorbance 600 nm, triplicate): <7 µM; hemolysis (human erythrocytes; pH 7.2): 10%"
PGLa,–,–,–,–,–,–,–,–,mean hydrophobic moment [2]: 0.260
KWKVLKKKIKMLRNRINGLVKAGPALKVKLQALAL-NH2 [CecM],>250^d µM,<1 µM,<1 µM,<1 µM,<2 µM,<2 µM,<1 µM,<1 µM,–
magainin,–,–,–,–,–,–,–,–,mean hydrophobic moment [2]: 0.286
KWKVFKKIEKMGRNIRNGIVK-NH2 [ChoC],>250^d µM,>12 µM,<1 µM,>12 µM,>25 µM,>25 µM,>25 µM,>12 µM,–
CN(C)[C@@H]1C(O)=C(C(N)=O)C(=O)[C@@]2(O)C(O)=C3C(=O)c4c(O)cccc4[C@@](C)(O)[C@H]3C[C@@H]12 [tetracycline],UD (UD is for undetectable (>1000)),<1 µM,–,–,–,–,–,–,"MIC (E. coli (K12); Escherichia coli, 24 h): < 1.5 µM; MIC ([1]; Pseudomonas aeruginosa, ATCC27853, 24 h): < 6 µM; MIC (B. subtilis (ATCC6633); Bacillus subtilis, ATCC6633, 24 h): < 0.5 µM; MIC [3]: < 1 µM; MIC [4]: < 1 µM; MIC (S. typhimurium (DA6192); Salmonella enterica, S. typhimurium DA6192 (wild type, Table 2), broth microdilution): < 1 µM; MIC (S. aureus (ATCC6538); Staphylococcus aureus, ATCC6538, 24 h): < 0.5 µM; MIC (M. luteus (NCIMB13267); Micrococcus luteus, NCIMB13267, 24 h): < 0.5 µM"
KWKVFKKAEKMIRNIRNKIVK [I8A],–,–,–,–,–,–,–,–,"MIC (E. coli (K12); [7]): > 3 µM; MIC [1, 8]: > 6 µM; LC50, median (50%) lethal concentration (human erythrocytes; Ala-d3 ChoM mutants (Table S6)): > 250 µM; MIC (S. aureus (ATCC6538); [9]): > 25 µM"
CC[C@H](C)CCCCC(=O)N[C@@H](CCN)C(=O)N[C@H](C(=O)N[C@@H](CCN)C(=O)N[C@H]1CCNC(=O)[C@H]([C@@H](C)O)NC(=O)[C@H](CCN)NC(=O)[C@H](CCN)NC(=O)[C@H](CC(C)C)NC(=O)[C@@H](Cc2ccccc2)NC(=O)[C@H](CCN)NC1=O)[C@@H](C)O [polymyxin B] (X1-[Dab]T[Dab][Dab][Dab][dF]L[Dab][Dab]T; lactam 4-C (inferred); N-terminus assumed),–,–,–,<0.5 µM,<6 µM,<2 µM,<0.5 µM,<0.5 µM,–
"KWKVFKKIEKMGRNIRNGIVKAGPAIAVLGEAKAL-NH2 [CecB, Cecropin B]",>250^d µM,<3 µM,<1 µM,<3 µM,>6 µM,<3 µM,<3 µM,<3 µM,–
CO/N=C(\C(=O)N[C@@H]1C(=O)N2C(C(=O)O)=C(CSc3nc(=O)c(=O)[nH]n3C)CS[C@H]12)c1csc(N)n1 [ceftriaxone],UD (UD is for undetectable (>1000)),–,–,–,–,–,–,<1 µM,"MIC (E. coli (K12); Escherichia coli, E. coli, broth microdilution (CLSI), Mueller Hinton broth, serial twofold dilutions 100 to 0 μM, 24 h at 37 °C, absorbance 600 nm, triplicate): < 6 µM; MIC ([1]; Pseudomonas aeruginosa, ATCC27853, P. aeruginosa, broth microdilution (CLSI), Mueller Hinton broth, serial twofold dilutions 100 to 0 μM, 24 h at 37 °C, absorbance 600 nm, triplicate): > 25 µM; MIC (B. subtilis (ATCC6633); Bacillus subtilis, ATCC6633, B. subtilis, broth microdilution (CLSI), Mueller Hinton broth, serial twofold dilutions 100 to 0 μM, 24 h at 37 °C, absorbance 600 nm, triplicate): < 1 µM; MIC [3]: < 1 µM; MIC [4]: < 1 µM; MIC (S. typhimurium (DA6192); Salmonella enterica, S. typhimurium (Table 1), broth microdilution (CLSI), Mueller Hinton broth, absorbance 600 nm): < 1 µM; MIC (S. aureus (ATCC6538); Staphylococcus aureus, ATCC6538, S. aureus, broth microdilution (CLSI), Mueller Hinton broth, serial twofold dilutions 100 to 0 μM, 24 h at 37 °C, absorbance 600 nm, triplicate): < 3 µM; MIC (M. luteus (NCIMB13267); Micrococcus luteus, NCIMB13267, M. luteus, broth microdilution (CLSI), Mueller Hinton broth, 24 h at 37 °C, absorbance 600 nm, triplicate): < 0.5 µM"
